ChEMBL document CHEMBL1125088, “Stereospecific synthesis, assignment of absolute configuration, and biological activity of the enantiomers of 3-[[[3-[2-(7-chloroquinolin-2-yl)-(E)-ethenyl]phenyl] [[3-(dimethylamino)-3-oxopropyl]thio]methyl]thio]propionic acid, a potent and specific leukotriene D4 receptor antagonist” (J Med Chem, 1990)

What was measured:
[1] = target: T1, Cysteinyl leukotriene receptor 1 (Homo sapiens, UniProt Q9Y271); assay: In vitro inhibitory activity against Cysteinyl leukotriene D4 receptor from human lung membrane; format: tissue-based
T1 sequence (Q9Y271 whole entry): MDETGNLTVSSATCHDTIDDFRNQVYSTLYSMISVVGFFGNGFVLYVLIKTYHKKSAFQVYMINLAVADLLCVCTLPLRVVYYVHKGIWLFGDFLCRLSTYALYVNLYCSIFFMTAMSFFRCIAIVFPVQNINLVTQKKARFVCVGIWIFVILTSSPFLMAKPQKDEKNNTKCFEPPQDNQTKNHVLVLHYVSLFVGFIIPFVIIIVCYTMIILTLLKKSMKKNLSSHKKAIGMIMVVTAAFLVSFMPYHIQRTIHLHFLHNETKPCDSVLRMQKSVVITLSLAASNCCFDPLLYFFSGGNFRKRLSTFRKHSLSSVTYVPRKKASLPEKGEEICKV

Cavia porcellus = species: Cavia porcellus; assay: Antagonist activity of LTD4-induced contractions of isolated guinea pig trachea; format: functional
[2] = target: T2, Cysteinyl leukotriene receptor 1 (Cavia porcellus, UniProt Q2NNR5); assay: Binding affinity against Cysteinyl leukotriene D4 receptor from guinea pig lung membrane; format: tissue-based
T2 sequence (Q2NNR5 whole entry): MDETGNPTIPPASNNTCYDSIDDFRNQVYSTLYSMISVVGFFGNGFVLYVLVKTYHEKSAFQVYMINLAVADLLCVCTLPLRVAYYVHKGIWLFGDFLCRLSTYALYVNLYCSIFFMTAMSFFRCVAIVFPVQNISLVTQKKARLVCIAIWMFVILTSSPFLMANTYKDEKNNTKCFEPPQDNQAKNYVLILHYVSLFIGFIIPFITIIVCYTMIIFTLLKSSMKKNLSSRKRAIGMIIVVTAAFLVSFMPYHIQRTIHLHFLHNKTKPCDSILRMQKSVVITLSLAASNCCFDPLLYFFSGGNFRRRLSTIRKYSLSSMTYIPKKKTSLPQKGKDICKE

Rattus norvegicus = species: Rattus norvegicus; assay: Tested for antigen-induced dyspnea in hyperactive rats; format: functional

Row | Structure (SMILES) | IC50 [1] | -Log KB (Cavia porcellus) | IC50 [2] | ED50 (Rattus norvegicus)
1 | CN(C)C(=O)CCSC(SCCC(=O)[O-])c1cccc(/C=C/c2ccc3ccc(Cl)cc3n2)c1.[Na+] (stereo not drawn) | 3.1 nM | 9 | 0.77 nM | 0.097 mg/kg
2 | CN(C)C(=O)CCS[C@H](SCCC(=O)O)c1cccc(/C=C/c2ccc3ccc(Cl)cc3n2)c1 [VERLUKAST] | 8 nM | 8.7 | 3.2 nM | 0.028 mg/kg
